Where two headings read alike, the source gives them in different places.
Test: oral bioavailability in dogs
Type: in vivo
Conditions: unformulated solid in a capsule dosage form, 5 mg/kg oral dose in dogs
Procedure: Dogs (beagle dogs, mixed sexes, weighing 7-14 kg) were fasted overnight prior to dosing, but were permitted water ad libitum. Each dog received a 100 µg/kg subcutaneous dose of histamine approximately 30 minutes prior to dosing. Each dog received a single dosage form corresponding to a 5 mg/kg dose of the drug. The dose was followed by approximately 10 milliliters of water. Blood samples were obtained from each animal prior to dosing and 0.25, 0.5, 1.0, 1.5, 2, 3, 4, 6, 8, 10, and 12 hours after drug administration. The plasma was separated from the red cells by centrifugation and frozen (-30 °C) until analysis. Concentrations of parent drug were determined by reverse phase HPLC with low wavelength UV detection following liquid-liquid extraction of the plasma samples. The parent drug area under the curve was calculated by the trapezoidal method over the time course of the study. The absolute bioavailability of each test composition was calculated by comparing the area under the curve after oral dosing to that obtained from a single intravenous dose. Each capsule or capsule composition was evaluated in a group containing at least six dogs; the values reported are averages for each group of dogs.

Row | bioavailability (dog, in vivo, read-out: bioavailability) | bioavailability | SMILES
1 | < 2% |  | CC(C)c1nc(CN(C)C(=O)NC(C(=O)NC(Cc2ccccc2)CC(O)C(Cc2ccccc2)NC(=O)OCc2cncs2)C(C)C)cs1 (centres unmarked) [bis-tosylate of a compound of formula I]
2 |  | less than 2% | CC(C)c1nc(CN(C)C(=O)N[C@H](C(=O)N[C@@H](Cc2ccccc2)C[C@H](O)[C@H](Cc2ccccc2)NC(=O)OCc2cncs2)C(C)C)cs1 [compound of formula I]
